Data published in PubChem BioAssay AID2060904 (Molecular Pharmacology Branch, DTP, NCI, 2025).

System: 349418-098-R-PDC complex spheroid viability
Assay: Anticancer human tumor 349418-098-R-PDC patient-derived lung adenocarcinoma cell line growth inhibition [RAS]
Conditions: for IC50: curve of first compound; for viability, T/C: stronger effect = lower value
Outline: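 Tumour cells grown as complex spheroids with HUVEC endothelial cells and mesenchymal stem cells, treated with RAS pathway inhibitor combinations. Each agent spans half-log steps from near clinical Cmax, or 10 microM where Cmax is unknown.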

[1] = second compound 0.00316 µM, first compound 0.0316 µM
[2] = second compound 0.00316 µM, first compound 0.1 µM
[3] = second compound 0.00316 µM, first compound 0.316 µM
[4] = second compound 0.00316 µM, first compound 1 µM
[5] = second compound 0.01 µM, first compound 0.0316 µM
[6] = second compound 0.01 µM, first compound 0.1 µM
[7] = second compound 0.01 µM, first compound 0.316 µM
[8] = second compound 0.01 µM, first compound 1 µM
[9] = second compound 0.0316 µM, first compound 0.0316 µM
[10] = second compound 0.0316 µM, first compound 0.1 µM
[11] = second compound 0.0316 µM, first compound 0.316 µM
[12] = second compound 0.0316 µM, first compound 1 µM
[13] = second compound 0.1 µM, first compound 0.0316 µM
[14] = second compound 0.1 µM, first compound 0.1 µM
[15] = second compound 0.1 µM, first compound 0.316 µM
[16] = second compound 0.1 µM, first compound 1 µM
[17] = second compound 0.316 µM, first compound 0.0316 µM
[18] = second compound 0.316 µM, first compound 0.1 µM
[19] = second compound 0.316 µM, first compound 0.316 µM
[20] = second compound 0.316 µM, first compound 1 µM
[21] = second compound 1 µM, first compound 0.0316 µM
[22] = second compound 1 µM, first compound 0.1 µM
[23] = second compound 1 µM, first compound 0.316 µM
[24] = second compound 1 µM, first compound 1 µM
[25] = second compound 0.00316 µM, first compound 3.16 µM
[26] = second compound 0.00316 µM, first compound 10 µM
[27] = second compound 0.01 µM, first compound 3.16 µM
[28] = second compound 0.01 µM, first compound 10 µM
[29] = second compound 0.0316 µM, first compound 3.16 µM
[30] = second compound 0.0316 µM, first compound 10 µM
[31] = second compound 0.1 µM, first compound 3.16 µM
[32] = second compound 0.1 µM, first compound 10 µM
[33] = second compound 0.316 µM, first compound 3.16 µM
[34] = second compound 0.316 µM, first compound 10 µM
[35] = second compound 1 µM, first compound 3.16 µM
[36] = second compound 1 µM, first compound 10 µM
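Further: spheroids exposed to compound for seven days before viability readout.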

Question: Which IC50 (second compound 0.00316 µM) does the source give for CCN1CCN(Cc2ccc(Nc3ncc(F)c(-c4cc(F)c5nc(C)n(C(C)C)c5c4)n3)nc2)CC1 + C=CC(=O)N1CCN(c2nc(OCC3CCCN3C)nc3c(F)c(-c4nc(N)cc(C)c4C(F)(F)F)c(Cl)cc23)C(C)C1 here?
Answer: 17.3 nM

Question: What about the IC50 (second compound 0.01 µM) of the same compound?
Answer: 23.4 nM

Question: And the IC50 (second compound 0.0316 µM)?
Answer: 30.2 nM

Question: What about the IC50 (second compound 0.1 µM) of the same compound?
Answer: 11.3 nM

Question: And the IC50 (second compound 0.316 µM)?
Answer: 20.8 nM

Question: And the IC50 (second compound 1 µM)?
Answer: 14.1 nM

Question: What about the viability, T/C (second compound 0.00316 µM, first compound 0.00316 µM) of the same compound?
Answer: 77.6%

Question: What about the viability, T/C (second compound 0.00316 µM, first compound 0.01 µM) of the same compound?
Answer: 62.2%

Question: And the viability, T/C [1]?
Answer: 35.9%

Question: And the viability, T/C [2]?
Answer: 25.7%

Question: And the viability, T/C [3]?
Answer: 20.9%

Question: What about the viability, T/C [4] of the same compound?
Answer: 15.7%

Question: What about the viability, T/C (second compound 0.01 µM, first compound 0.00316 µM) of the same compound?
Answer: 89.4%

Question: What about the viability, T/C (second compound 0.01 µM, first compound 0.01 µM) of the same compound?
Answer: 71.3%

Question: What about the viability, T/C [5] of the same compound?
Answer: 43.4%

Question: What about the viability, T/C [6] of the same compound?
Answer: 22.1%

Question: And the viability, T/C [7]?
Answer: 22.5%

Question: What about the viability, T/C [8] of the same compound?
Answer: 17%

Question: And the viability, T/C (second compound 0.0316 µM, first compound 0.00316 µM)?
Answer: 78.8%

Question: What about the viability, T/C (second compound 0.0316 µM, first compound 0.01 µM) of the same compound?
Answer: 96.2%

Question: What about the viability, T/C [9] of the same compound?
Answer: 48.4%

Question: And the viability, T/C [10]?
Answer: 22.5%

Question: And the viability, T/C [11]?
Answer: 21.6%

Question: What about the viability, T/C [12] of the same compound?
Answer: 17.5%

Question: And the viability, T/C (second compound 0.1 µM, first compound 0.00316 µM)?
Answer: 72.8%

Question: And the viability, T/C (second compound 0.1 µM, first compound 0.01 µM)?
Answer: 51.2%

Question: What about the viability, T/C [13] of the same compound?
Answer: 35.6%

Question: And the viability, T/C [14]?
Answer: 20.6%

Question: And the viability, T/C [15]?
Answer: 20.8%

Question: And the viability, T/C [16]?
Answer: 17.4%

Question: What about the viability, T/C (second compound 0.316 µM, first compound 0.00316 µM) of the same compound?
Answer: 82.8%

Question: And the viability, T/C (second compound 0.316 µM, first compound 0.01 µM)?
Answer: 74%

Question: What about the viability, T/C [17] of the same compound?
Answer: 35.2%

Question: And the viability, T/C [18]?
Answer: 34.3%

Question: What about the viability, T/C [19] of the same compound?
Answer: 25.2%

Question: What about the viability, T/C [20] of the same compound?
Answer: 18.1%

Question: And the viability, T/C (second compound 1 µM, first compound 0.00316 µM)?
Answer: 61.5%

Question: What about the viability, T/C (second compound 1 µM, first compound 0.01 µM) of the same compound?
Answer: 49.1%

Question: And the viability, T/C [21]?
Answer: 46.7%

Question: What about the viability, T/C [22] of the same compound?
Answer: 29%

Question: And the viability, T/C [23]?
Answer: 22.1%

Question: What about the viability, T/C [24] of the same compound?
Answer: 19.1%

Question: Which IC50 (second compound 0.00316 µM) does the source give for C[C@@H](NC(=O)c1ncnc(N)c1Cl)c1ncc(C(=O)Nc2cc(C(F)(F)F)c(Cl)cn2)s1 + C=CC(=O)N1CCN(c2nc(OCC3CCCN3C)nc3c(F)c(-c4nc(N)cc(C)c4C(F)(F)F)c(Cl)cc23)C(C)C1 here?
Answer: 954 nM

Question: What about the IC50 (second compound 0.01 µM) of the same compound?
Answer: 1510 nM

Question: And the IC50 (second compound 0.0316 µM)?
Answer: 2040 nM

Question: And the IC50 (second compound 0.1 µM)?
Answer: 2180 nM

Question: And the IC50 (second compound 0.316 µM)?
Answer: 3120 nM

Question: What about the IC50 (second compound 1 µM) of the same compound?
Answer: 3860 nM

Question: What about the viability, T/C [1] of the same compound?
Answer: 102%

Question: What about the viability, T/C [2] of the same compound?
Answer: 124%

Question: And the viability, T/C [3]?
Answer: 88.9%

Question: And the viability, T/C [4]?
Answer: 50%

Question: And the viability, T/C [25]?
Answer: 39%

Question: And the viability, T/C [26]?
Answer: 32.6%

Question: What about the viability, T/C [5] of the same compound?
Answer: 78.6%

Question: What about the viability, T/C [6] of the same compound?
Answer: 115%

Question: What about the viability, T/C [7] of the same compound?
Answer: 68.8%

Question: And the viability, T/C [8]?
Answer: 59.1%

Question: What about the viability, T/C [27] of the same compound?
Answer: 41.3%

Question: And the viability, T/C [28]?
Answer: 31.3%

Question: And the viability, T/C [9]?
Answer: 108%

Question: What about the viability, T/C [10] of the same compound?
Answer: 113%

Question: And the viability, T/C [11]?
Answer: 65.1%

Question: And the viability, T/C [12]?
Answer: 62.8%

Question: And the viability, T/C [29]?
Answer: 50.1%

Question: And the viability, T/C [30]?
Answer: 29.6%

Question: And the viability, T/C [13]?
Answer: 80.6%

Question: And the viability, T/C [14]?
Answer: 106%

Question: And the viability, T/C [15]?
Answer: 85.3%

Question: And the viability, T/C [16]?
Answer: 60.9%

Question: And the viability, T/C [31]?
Answer: 46.8%

Question: And the viability, T/C [32]?
Answer: 41%

Question: What about the viability, T/C [17] of the same compound?
Answer: 60.6%

Question: And the viability, T/C [18]?
Answer: 113%

Question: What about the viability, T/C [19] of the same compound?
Answer: 85.7%

Question: And the viability, T/C [20]?
Answer: 67.1%

Question: What about the viability, T/C [33] of the same compound?
Answer: 52.8%

Question: What about the viability, T/C [34] of the same compound?
Answer: 31.2%

Question: What about the viability, T/C [21] of the same compound?
Answer: 65.5%

Question: What about the viability, T/C [22] of the same compound?
Answer: 111%

Question: And the viability, T/C [23]?
Answer: 84.2%

Question: And the viability, T/C [24]?
Answer: 64.1%

Question: And the viability, T/C [35]?
Answer: 58.4%

Question: What about the viability, T/C [36] of the same compound?
Answer: 30%

Question: Cc1nc(N2CCC3(CC2)COC(C)C3N)c(CO)nc1Sc1ccnc(N)c1Cl (stereo unspecified) + C=CC(=O)N1CCN(c2nc(OCC3CCCN3C)nc3c(F)c(-c4nc(N)cc(C)c4C(F)(F)F)c(Cl)cc23)C(C)C1 was tested. Which IC50 (second compound 0.00316 µM) did it give?
Answer: > 10000 nM

Question: What about the IC50 (second compound 0.01 µM) of the same compound?
Answer: > 10000 nM

Question: And the IC50 (second compound 0.0316 µM)?
Answer: > 10000 nM

Question: What about the IC50 (second compound 0.1 µM) of the same compound?
Answer: > 10000 nM

Question: And the IC50 (second compound 0.316 µM)?
Answer: > 10000 nM

Question: What about the IC50 (second compound 1 µM) of the same compound?
Answer: > 10000 nM

Question: What about the viability, T/C [1] of the same compound?
Answer: 100%

Question: And the viability, T/C [2]?
Answer: 83.6%

Question: What about the viability, T/C [3] of the same compound?
Answer: 131%

Question: And the viability, T/C [4]?
Answer: 86.9%

Question: What about the viability, T/C [25] of the same compound?
Answer: 81.7%

Question: And the viability, T/C [26]?
Answer: 102%

Question: What about the viability, T/C [5] of the same compound?
Answer: 78.4%

Question: And the viability, T/C [6]?
Answer: 80.5%

Question: And the viability, T/C [7]?
Answer: 92.5%

Question: And the viability, T/C [8]?
Answer: 92.5%

Question: What about the viability, T/C [27] of the same compound?
Answer: 104%

Question: What about the viability, T/C [28] of the same compound?
Answer: 98.3%

Question: And the viability, T/C [9]?
Answer: 84.3%

Question: What about the viability, T/C [10] of the same compound?
Answer: 107%

Question: What about the viability, T/C [11] of the same compound?
Answer: 87.1%

Question: What about the viability, T/C [12] of the same compound?
Answer: 73.6%

Question: What about the viability, T/C [29] of the same compound?
Answer: 120%

Question: What about the viability, T/C [30] of the same compound?
Answer: 99%

Question: And the viability, T/C [13]?
Answer: 82.8%

Question: And the viability, T/C [14]?
Answer: 64.9%

Question: And the viability, T/C [15]?
Answer: 92.5%

Question: And the viability, T/C [16]?
Answer: 87.3%

Question: And the viability, T/C [31]?
Answer: 81.2%

Question: What about the viability, T/C [32] of the same compound?
Answer: 82.9%

Question: What about the viability, T/C [17] of the same compound?
Answer: 81%

Question: And the viability, T/C [18]?
Answer: 89.2%

Question: What about the viability, T/C [19] of the same compound?
Answer: 73.4%

Question: What about the viability, T/C [20] of the same compound?
Answer: 81.7%

Question: And the viability, T/C [33]?
Answer: 86%

Question: What about the viability, T/C [34] of the same compound?
Answer: 87.1%

Question: What about the viability, T/C [21] of the same compound?
Answer: 105%

Question: And the viability, T/C [22]?
Answer: 76.5%

Question: What about the viability, T/C [23] of the same compound?
Answer: 95.8%

Question: What about the viability, T/C [24] of the same compound?
Answer: 108%

Question: And the viability, T/C [35]?
Answer: 88.1%

Question: And the viability, T/C [36]?
Answer: 105%
